Source: ChEMBL document CHEMBL1201862, “PubChem BioAssay data set” (2004)
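Results reflect a 48-hour exposure of cells in 96-well plates to compound at five concentrations. GI50 is the concentration that inhibits growth by half.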 The source made the active and inactive calls. Cut-off read from the data, not from the text of the source: active = GI50 up to about 1.1 µM and inactive = higher. *1 amine or outer side, *2 acyl side, *3 side chain or, on linkers, in order; H or OH if unused. Where a SMILES comes first, the peptide text is derived from it. Bridges are numbered along the chain shown (N, C = ends). [ ]: non-standard residue; d: D form. The star is where a group is joined. X56 = CC(C)C(C)C(C(=O)[*:2])N(C)[*:1]; Picolinoyl(3-OH) = O=C(c1ncccc1O)*; NMePhg = CN[CH](C(=O)O)c1ccccc1; Hyp = O=C(O)[CH]1C[CH](O)CN1; Sar = CNCC(=O)O

Assays:
Test in all cases: NCI-60 cell line screen, 48 h
A498 = test system: A498
A549 = test system: A549
CAKI-1 = test system: CAKI-1
CCRF-CEM = test system: CCRF-CEM
COLO 205 = test system: COLO 205
DLD-1 = test system: DLD-1
DMS-114 = test system: DMS-114
DMS-273 = test system: DMS-273
EKVX = test system: EKVX
HCC 2998 = test system: HCC 2998
HCT-116 = test system: HCT-116
HCT-15 = test system: HCT-15
HL-60 = test system: HL-60
HOP-18 = test system: HOP-18
HOP-62 = test system: HOP-62
HOP-92 = test system: HOP-92
HT-29 = test system: HT-29
IGROV-1 = test system: IGROV-1
K562 = test system: K562
KM-20L2 = test system: KM-20L2
KM12 = test system: KM12
LOX IMVI = test system: LOX IMVI
M19-MEL = test system: M19-MEL
MCF7 = test system: MCF7
MOLT-4 = test system: MOLT-4
Malme-3M = test system: Malme-3M
NCI-H226 = test system: NCI-H226
NCI-H23 = test system: NCI-H23
NCI-H460 = test system: NCI-H460
NCI-H522 = test system: NCI-H522
NCI/ADR-RES = test system: NCI/ADR-RES
OVCAR-3 = test system: OVCAR-3
OVCAR-4 = test system: OVCAR-4
OVCAR-5 = test system: OVCAR-5
OVCAR-8 = test system: OVCAR-8
RPMI-8226 = test system: RPMI-8226
RXF 393 = test system: RXF 393
SF-268 = test system: SF-268
SF-295 = test system: SF-295
SF-539 = test system: SF-539
SK-MEL-28 = test system: SK-MEL-28
SK-MEL-2 = test system: SK-MEL-2
SK-MEL-5 = test system: SK-MEL-5
SK-OV-3 = test system: SK-OV-3
SN12C = test system: SN12C
SNB-19 = test system: SNB-19
SNB-75 = test system: SNB-75
SNB-78 = test system: SNB-78
SW-620 = test system: SW-620
U-251 = test system: U-251
UACC-257 = test system: UACC-257
UACC-62 = test system: UACC-62
UO-31 = test system: UO-31
XF498 = test system: XF498

SMILES: CCCSCC(P(=O)(O)O)P(=O)(O)O.NC1CCCCC1
- GI50 (A498): 8.59 µM (inactive)
- GI50 (A549): > 100 µM (inactive)
- GI50 (CAKI-1): > 100 µM (inactive)
- GI50 (CCRF-CEM): > 100 µM (inactive)
- GI50 (COLO 205): > 100 µM (inactive)
- GI50 (DLD-1): > 100 µM (inactive)
- GI50 (DMS-114): > 100 µM (inactive)
- GI50 (DMS-273): > 100 µM (inactive)
- GI50 (EKVX): > 100 µM (inactive)
- GI50 (HCC 2998): > 100 µM (inactive)
- GI50 (HCT-116): > 100 µM (inactive)
- GI50 (HCT-15): > 100 µM
- GI50 (HL-60): > 100 µM (inactive)
- GI50 (HOP-18): > 100 µM (inactive)
- GI50 (HOP-62): > 100 µM (inactive)
- GI50 (HOP-92): > 100 µM (inactive)
- GI50 (HT-29): > 100 µM (inactive)
- GI50 (IGROV-1): > 100 µM (inactive)
- GI50 (K562): > 100 µM (inactive)
- GI50 (KM-20L2): > 100 µM (inactive)
- GI50 (KM12): 7.46 µM (inactive)
- GI50 (LOX IMVI): > 100 µM (inactive)
- GI50 (M19-MEL): > 100 µM (inactive)
- GI50 (MCF7): > 100 µM (inactive)
- GI50 (MOLT-4): > 100 µM (inactive)
- GI50 (Malme-3M): > 100 µM (inactive)
- GI50 (NCI-H226): > 100 µM (inactive)
- GI50 (NCI-H23): > 100 µM (inactive)
- GI50 (NCI-H460): > 100 µM (inactive)
- GI50 (NCI-H522): > 100 µM (inactive)
- GI50 (NCI/ADR-RES): > 100 µM (inactive)
- GI50 (OVCAR-3): 55.7 µM (inactive)
- GI50 (OVCAR-4): > 100 µM (inactive)
- GI50 (OVCAR-5): > 100 µM (inactive)
- GI50 (OVCAR-8): > 100 µM (inactive)
- GI50 (RPMI-8226): > 100 µM (inactive)
- GI50 (RXF 393): > 100 µM (inactive)
- GI50 (SF-268): > 100 µM (inactive)
- GI50 (SF-295): > 100 µM (inactive)
- GI50 (SF-539): > 100 µM (inactive)
- GI50 (SK-MEL-28): > 100 µM (inactive)
- GI50 (SK-MEL-2): > 100 µM (inactive)
- GI50 (SK-MEL-5): > 100 µM (inactive)
- GI50 (SK-OV-3): > 100 µM (inactive)
- GI50 (SN12C): > 100 µM (inactive)
- GI50 (SNB-19): > 100 µM (inactive)
- GI50 (SNB-75): > 100 µM (inactive)
- GI50 (SNB-78): > 100 µM (inactive)
- GI50 (SW-620): > 100 µM (inactive)
- GI50 (U-251): > 100 µM (inactive)
- GI50 (UACC-257): > 100 µM (inactive)
- GI50 (UACC-62): > 100 µM (inactive)
- GI50 (UO-31): > 100 µM (inactive)
- GI50 (XF498): > 100 µM (inactive)

SMILES: COC(=O)c1nc(-c2ccc3c(n2)C(=O)C(=N)C(OC)=C3O)c(N)c(-c2ccc(OC)c(OC)c2O)c1C
- GI50 (A498): 1.61 µM (inactive)
- GI50 (A549): 0.189 µM (active)
- GI50 (CAKI-1): 0.628 µM (active)
- GI50 (CCRF-CEM): 2.56 µM (inactive)
- GI50 (COLO 205): 1.84 µM (inactive)
- GI50 (DLD-1): 1.17 µM (inactive)
- GI50 (DMS-114): 0.415 µM (active)
- GI50 (DMS-273): 0.303 µM (active)
- GI50 (EKVX): 2.57 µM (inactive)
- GI50 (HCC 2998): 0.128 µM (active)
- GI50 (HCT-116): 0.738 µM (active)
- GI50 (HCT-15): 1.13 µM
- GI50 (HL-60): 0.357 µM (active)
- GI50 (HOP-18): 2.03 µM (inactive)
- GI50 (HOP-62): 0.194 µM (active)
- GI50 (HOP-92): 2.16 µM (inactive)
- GI50 (HT-29): 1.73 µM (inactive)
- GI50 (IGROV-1): 1.7 µM (inactive)
- GI50 (K562): 1.93 µM (inactive)
- GI50 (KM-20L2): 2.24 µM (inactive)
- GI50 (KM12): 1.68 µM (inactive)
- GI50 (LOX IMVI): 0.29 µM (active)
- GI50 (M19-MEL): 0.254 µM (active)
- GI50 (MCF7): 0.153 µM (active)
- GI50 (MOLT-4): 2.04 µM (inactive)
- GI50 (Malme-3M): 0.524 µM (active)
- GI50 (NCI-H226): 0.324 µM (active)
- GI50 (NCI-H23): 0.217 µM (active)
- GI50 (NCI-H460): < 0.01 µM (active)
- GI50 (NCI-H522): 1.06 µM (active)
- GI50 (NCI/ADR-RES): 1.3 µM (inactive)
- GI50 (OVCAR-3): 0.445 µM (active)
- GI50 (OVCAR-4): 1.66 µM (inactive)
- GI50 (OVCAR-5): 2.14 µM (inactive)
- GI50 (OVCAR-8): 1.08 µM (active)
- GI50 (RPMI-8226): 1.21 µM (inactive)
- GI50 (RXF 393): 1.58 µM (inactive)
- GI50 (SF-268): 0.769 µM (active)
- GI50 (SF-295): 0.449 µM (active)
- GI50 (SF-539): 0.363 µM (active)
- GI50 (SK-MEL-28): 1.33 µM (inactive)
- GI50 (SK-MEL-2): 1.47 µM (inactive)
- GI50 (SK-MEL-5): 0.413 µM (active)
- GI50 (SK-OV-3): 1.18 µM (inactive)
- GI50 (SN12C): 1.16 µM (inactive)
- GI50 (SNB-19): 0.628 µM (active)
- GI50 (SNB-75): 0.984 µM (active)
- GI50 (SNB-78): 2.35 µM (inactive)
- GI50 (SW-620): 1.33 µM (inactive)
- GI50 (U-251): 0.377 µM (active)
- GI50 (UACC-257): 0.419 µM (active)
- GI50 (UACC-62): 0.29 µM (active)
- GI50 (UO-31): 0.729 µM (active)
- GI50 (XF498): 1.18 µM (inactive)

SMILES: CC(C)CC1NC(=O)C(NC(=O)c2ncccc2O)C(C)OC(=O)C(c2ccccc2)N(C)C(=O)C(C)NC(=O)C(C(C)C(C)C)N(C)C(=O)CN(C)C(=O)C2CC(O)CN2C1=O (configuration not stated) ({Picolinoyl(3-OH)}-TL[Hyp][Sar][X56]A[NMePhg]; ester 1-C; configuration not given here)
- GI50 (A498): > 107 µM (inactive)
- GI50 (A549): 52.6 µM (inactive)
- GI50 (CAKI-1): 89.1 µM (inactive)
- GI50 (CCRF-CEM): 60.5 µM (inactive)
- GI50 (COLO 205): 80.2 µM (inactive)
- GI50 (DLD-1): 82.4 µM (inactive)
- GI50 (DMS-114): > 119 µM (inactive)
- GI50 (DMS-273): 34.8 µM (inactive)
- GI50 (EKVX): 10.1 µM (inactive)
- GI50 (HCC 2998): 78.7 µM (inactive)
- GI50 (HCT-116): 26.9 µM (inactive)
- GI50 (HCT-15): 105 µM
- GI50 (HL-60): 58.9 µM (inactive)
- GI50 (HOP-18): 83.6 µM (inactive)
- GI50 (HOP-62): > 125 µM (inactive)
- GI50 (HOP-92): 74.1 µM (inactive)
- GI50 (HT-29): 37.6 µM (inactive)
- GI50 (IGROV-1): 23.8 µM (inactive)
- GI50 (K562): 61.8 µM (inactive)
- GI50 (KM-20L2): 7.93 µM (inactive)
- GI50 (KM12): 80.4 µM (inactive)
- GI50 (LOX IMVI): > 125 µM (inactive)
- GI50 (M19-MEL): 68.2 µM (inactive)
- GI50 (MCF7): 13.7 µM (inactive)
- GI50 (MOLT-4): 43.2 µM (inactive)
- GI50 (Malme-3M): 55.5 µM (inactive)
- GI50 (NCI-H226): 71.1 µM (inactive)
- GI50 (NCI-H23): 58.6 µM (inactive)
- GI50 (NCI-H460): 12.3 µM (inactive)
- GI50 (NCI-H522): 124 µM (inactive)
- GI50 (NCI/ADR-RES): > 125 µM (inactive)
- GI50 (OVCAR-3): 104 µM (inactive)
- GI50 (OVCAR-4): 66.5 µM (inactive)
- GI50 (OVCAR-5): > 125 µM (inactive)
- GI50 (OVCAR-8): 15.7 µM (inactive)
- GI50 (RPMI-8226): 35.8 µM (inactive)
- GI50 (RXF 393): > 125 µM (inactive)
- GI50 (SF-268): 51.3 µM (inactive)
- GI50 (SF-295): 85.7 µM (inactive)
- GI50 (SF-539): 74.5 µM (inactive)
- GI50 (SK-MEL-28): 102 µM (inactive)
- GI50 (SK-MEL-2): 38.7 µM (inactive)
- GI50 (SK-MEL-5): 24.3 µM (inactive)
- GI50 (SK-OV-3): > 125 µM (inactive)
- GI50 (SN12C): 65.8 µM (inactive)
- GI50 (SNB-19): 115 µM (inactive)
- GI50 (SNB-75): 36.7 µM (inactive)
- GI50 (SNB-78): > 125 µM (inactive)
- GI50 (SW-620): 32.7 µM (inactive)
- GI50 (U-251): 40.8 µM (inactive)
- GI50 (UACC-257): 58.2 µM (inactive)
- GI50 (UACC-62): 45.1 µM (inactive)
- GI50 (UO-31): > 85.5 µM (inactive)
- GI50 (XF498): 35.6 µM (inactive)
